Assay results from patent US6319929A, “Suksdorfin analogs, compositions thereof, and methods for making and using thereof” (priority 1998, dated 2001).

Tests used:
[1] = test system: HIV-1 replication in H9 cells; assay: HIV-1 replication inhibition in acutely infected H9 lymphocytes (p24 antigen ELISA); assay type: cell-based, HIV-1 (IIIB strain); conditions: for EC50: Human immunodeficiency virus 1, H9, acutely infected H9 cells; for anti-HIV activity in H9 cells (in words): acutely infected H9 cells
Experimental: (§1) HIV inhibition assay. The HIV inhibition was measured as described herein. Briefly, H9 cells, a T cell line, (3.5×10^6 cells/ml) were incubated in the presence or absence of HIV-1 (IIIB strain, 0.01-0.1 TCID50 /cell) for 1 hour at 37° C. Cells were washed thoroughly and resuspended at a final concentration of 2×10^5 cells/ml in the presence or absence of compound. After incubation for 3-4 days at 37° C., the cell density of uninfected cultures was determined by cell count to assess toxicity of the drug. An aliquot of each cell-free supernatant was assayed by p24 antigen ELISA to quantitate the amount of HIV-1 present in the infected cultures. Test compounds were considered to be active at a particular concentration if p24 antigen levels were less than 70% of infected, untreated controls and were nontoxic to uninfected H9 cells.
(§2) HIV Growth Inhibition Assay: The T cell line, H9, and the promonocytic cell line, U937, were maintained separately in continuous culture with complete medium (RPMI 1640 and […] fetal calf serum (FCS) at 5% CO2 and 37° C. Cell lines were used in experiments only when in log phase of growth; whereas, uninfected peripheral blood mononuclear cells (PBMCs) were first stimulated with PHA (1 μg/ml) for 3 days. All cell targets were incubated with HIV-1 (IIIB isolate, TCID50 10 ^4 IU/mi, at a multiplicity of infection of 0.1-0.01 IU/cell) for 1 hour at 37° C. and 5% CO2. The cell lines and PBMCs were washed thoroughly to remove unabsorbed virions and resuspended at 4×10^5 cells/ml in complete medium or complete medium with 10% v/v interleukin […] IL-2, respectively. Aliquots ( ml) were placed in wells of 24-well culture plates containing an equal volume of test compound (diluted in the appropriate culture medium). After incubation for 4 days at 37° C., cell density of uninfected cultures was determined by counting cells in a Coulter counter to assess toxicity of the test compound. A p24 antigen ELISA assay was used to determine the level of virus released in the medium of the HIV-infected cultures. The p24 antigen assay uses a HIV-1 anti-p24 specific monoclonal antibody as the capture antibody coated-on 96-well plates. Following a sample incubation period, rabbit serum containing antibodies for HIV-1 p24 is used to tag any p24 "captured" onto the microtiter well surface. Peroxidase conjugated goat anti-rabbit serum is then used to tag HIV-1 p24 specific rabbit antibodies which have complexed with captured p24. […] The cut-off for the p24 ELISA assay is 12. pg/ml. P24 in the culture medium was quantitated against a standard curve containing known amounts of p24. The effective (EC50) and inhibitory (IC50) concentrations (for anti-HIV activity and cytotoxicity, respectively) were determined graphically. Both the EC50 and IC50 values were calculated by plotting drug concentration versus percent inhibition, and then identifying a 50% inhibition value from the graph.

uninfected H9 cells [2] = assay: Toxicity to uninfected H9 cells (cell growth); assay type: cell-based; conditions: for IC50: Homo sapiens
Experimental: as §1, §2

[3] = test system: HIV-1 replication in H9 cells; assay: Combination study of suksdorfin with AZT, ddI and ddC: HIV-1 replication in acutely infected H9 cells; assay type: cell-based, HIV-1 (IIIB); conditions: for EC50 / IC50: Human immunodeficiency virus 1, H9; for EC50 / IC50 / Therapeutic Index: combinations with 4 μg/ml suksdorfin; for EC50: read-out: EC50; for IC50: concentration which inhibits viral replication by 50%, read-out: IC50 (μM)^b
Experimental: as §2, with “surface.” for “surface. Peroxidase conjugated goat anti-rabbit serum is then used to tag HIV-1 p24 specific rabbit antibodies which have complexed with captured p24.”, “The effective (EC50) and inhibitory (IC50) concentrations (for anti-HIV activity and cytotoxicity, respectively) were determined graphically.” left out
Combination Study: The experimental design is identical to the growth inhibition assay except that various concentrations of AZT, ddI or ddC were also added to cultures of acutely HIV-1 infected H9 cells that either have or have no received different concentrations of suksdorfin. The concentrations of AZT, ddI and ddC were 5 ten-fold dilutions starting at 1 μg/ml. [drawing 104] [drawing 105]

uninfected H9 cells [4] = assay: Combination study of suksdorfin with AZT, ddI and ddC: toxicity to uninfected H9 cells; assay type: cell-based; conditions: Homo sapiens, H9, combinations with 4 μg/ml suksdorfin
Experimental: Pharm. Asso. […] Aliquots ( ml) were placed in wells of 24-well culture plates containing an equal volume of test compound (diluted in the appropriate culture medium). After incubation for 4 days at 37° C., cell density of uninfected cultures was determined by counting cells in a Coulter counter to assess toxicity of the test compound. A p24 antigen ELISA assay was used to determine the level of virus released in the medium of the HIV-infected cultures. The p24 antigen assay uses a HIV-1 anti-p24 specific monoclonal antibody as the capture antibody coated-on 96-well plates. Following a sample incubation period, rabbit serum containing antibodies for HIV-1 p24 is used to tag any p24 "captured" onto the microtiter well surface. […] The cut-off for the p24 ELISA assay is 12. pg/ml. P24 in the culture medium was quantitated against a standard curve containing known amounts of p24. The effective (EC50) and inhibitory (IC50) concentrations (for anti-HIV activity and cytotoxicity, respectively) were determined graphically.
Combination Study: The experimental design is identical to the growth inhibition assay except that various concentrations of AZT, ddI or ddC were also added to cultures of acutely HIV-1 infected H9 cells that either have or have no received different concentrations of suksdorfin.

[5] = IC50 for cell growth inhibition divided by EC50 for HIV inhibition, H9
[6] = Table 16, concentration which inhibits uninfected cell growth by 50%, read-out: IC50 (μM)^a

In the case of `CC1(C)O[C@H]1COc1c2ccoc2cc2oc(=O)ccc12` [Oxypeucedanin, oxypeucedanin, reference compound], the EC50 ([1]; concentration which inhibits viral replication by 50%, Inactive = No suppression of HIV-1 replication in H9 cells, read-out: EC50) is reported as 31.5 µM, the IC50 ([1]; Human immunodeficiency virus 1, Table 14, concentration which inhibits viral replication by 50%, Inactive = No suppression of HIV-1 replication in H9 cells, read-out: IC50 (μM)^b) is reported as 31.5 µM and the “Therapeutic Index” value [1, 5] is reported as > 2.2. The “Therapeutic Index” value ([1]; Table 14) was > 2.2, the IC50 (uninfected H9 cells [2]; H9, Table 14, concentration which inhibits uninfected cell growth by 50%, read-out: IC50 (μM)^a) was > 69.9 µM and the IC50 (uninfected H9 cells [2]; H9, concentration which inhibits uninfected cell growth by 50%, read-out: IC50) was > 69.9 µM.

`C/C=C(/C)C(=O)O[C@@H]1c2c(ccc3ccc(=O)oc23)OC(C)(C)[C@@H]1OC(C)=O` [Pteryxin, pteryxin, reference compound] was tested, and the EC50 ([1]; concentration which inhibits viral replication by 50%, Inactive = No suppression of HIV-1 replication in H9 cells) was 4.6 µM, the IC50 ([1]; Human immunodeficiency virus 1, H9, read-out: IC50 (μM)^b) was 4.6 µM and the “Therapeutic Index” value [1, 5] was > 3.7. For the same compound, the “Therapeutic Index” value ([1]; Table 14) was > 3.7, the “anti-HIV activity in H9 cells (in words)” value [1] was “slightly reduced anti-HIV-l activity” and the “anti-HIV activity in H9 cells (in words)” value ([1]; listed as pteryxn) was “slightly reduced anti-HIV-1 activity”. For the same compound, the “increase of toxicity on replacing 4'-isovaleryl by angeloyl (versus suksdorfin)” value (uninfected H9 cells [2]; H9 cells) was 5 fold, the IC50 (uninfected H9 cells [2]; H9, concentration which inhibits uninfected cell growth by 50%) was > 10.4 µM and the IC50 (uninfected H9 cells [2]; H9, read-out: IC50 (μM)^a, Table 14, concentration which inhibits uninfected cell growth by 50%) was > 10.4 µM.

For `Nc1ccn([C@H]2CC[C@@H](CO)O2)c(=O)n1` [ddC, dideoxycytidine], the EC50 ([3]; Table 5) was 0.004 µg/mL, the IC50 ([3]; Table 16) was 0.004 µg/mL and the “Therapeutic Index” value ([3]; Table 5) was > 250. For the same compound, the “Therapeutic Index” value ([3]; Table 16) was > 250, the “decrease of EC50 in presence of suksdorfin” value ([3]; with 4 μg/ml suksdorfin, H9) was 40 fold and the IC50 (uninfected H9 cells [4]; Table 5, read-out: IC50) was > 1 µg/mL. The IC50 (uninfected H9 cells [4]; [6]) was > 1 µg/mL.

In the case of `O=c1[nH]cnc2c1ncn2[C@H]1CC[C@@H](CO)O1` [ddI], the “Therapeutic Index” value [1, 5] is reported as > 400, the EC50 ([3]; Table 5) is reported as 0.4 µg/mL and the IC50 ([3]; Table 16) is reported as 0.4 µg/mL. For the same compound, the “Therapeutic Index” value ([3]; Table 5) was > 2.5, the “Therapeutic Index” value ([3]; Table 16) was > 2.5 and the “decrease of EC50 in presence of suksdorfin” value ([3]; with 4 μg/ml suksdorfin, H9) was 4000 fold. For the same compound, the “reduction of amount of nucleoside needed in presence of suksdorfin” value ([3]; with 4 μg/ml suksdorfin, H9) was 4000 fold, the IC50 (uninfected H9 cells [4]; Table 5, read-out: IC50) was > 1 µg/mL and the IC50 (uninfected H9 cells [4]; [6]) was > 1 µg/mL.
